Assay [1] addresses T1, Serine/threonine-protein kinase TBK1 (Homo sapiens, UniProt Q9UHD2).
T1 sequence (Q9UHD2 whole entry): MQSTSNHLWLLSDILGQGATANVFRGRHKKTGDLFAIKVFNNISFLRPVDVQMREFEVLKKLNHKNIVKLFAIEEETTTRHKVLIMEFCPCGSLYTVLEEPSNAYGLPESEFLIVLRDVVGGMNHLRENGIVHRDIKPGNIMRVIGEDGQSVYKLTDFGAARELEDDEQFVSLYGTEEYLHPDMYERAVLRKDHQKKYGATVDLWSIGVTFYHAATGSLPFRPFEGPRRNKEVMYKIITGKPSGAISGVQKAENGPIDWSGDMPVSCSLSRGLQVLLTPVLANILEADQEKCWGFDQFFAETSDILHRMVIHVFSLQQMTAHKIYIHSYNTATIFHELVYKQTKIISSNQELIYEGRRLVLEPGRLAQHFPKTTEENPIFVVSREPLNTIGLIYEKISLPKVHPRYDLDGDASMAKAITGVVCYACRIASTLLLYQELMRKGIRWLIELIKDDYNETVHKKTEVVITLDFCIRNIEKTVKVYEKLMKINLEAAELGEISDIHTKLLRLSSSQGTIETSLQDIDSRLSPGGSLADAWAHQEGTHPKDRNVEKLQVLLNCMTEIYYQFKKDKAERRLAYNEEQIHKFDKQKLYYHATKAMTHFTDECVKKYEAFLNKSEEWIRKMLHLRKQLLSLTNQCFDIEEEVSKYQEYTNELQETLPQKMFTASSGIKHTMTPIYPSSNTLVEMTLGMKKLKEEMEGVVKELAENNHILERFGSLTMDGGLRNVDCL
Kind of assay: TBK1 : The kinase assay is performed as 384-well Flashplate assay (for e.g. Topcount measurement. 0.6 nM TANK binding kinase (TBK1), 800 nM biotinylated MELK-derived peptide (Biotin-Ah-Ah-[…]) SEQ ID NO: 2 and 10 uM ATP (spiked with 0.25 uCi 33P-ATP/well) are incubated in a total volume of 50 ul (10 mM MOPS, 10 mM Mg-acetat, 0.1 mM EGTA, 1 mM DTT, 0.02% Brij35, 0.1% BSA, pH 7.5) with or without test compound for 120 Min at 30° C. The reaction is stopped with 25 ul 200 mM EDTA. After 30 Min at room temperature the liquid is removed and each well washed thrice with 100 ul 0.9% sodium chloride solution.

Assay [2] has as its target T2, Inhibitor of nuclear factor kappa-B kinase subunit epsilon (Homo sapiens, UniProt Q14164).
T2 sequence (Q14164 whole entry): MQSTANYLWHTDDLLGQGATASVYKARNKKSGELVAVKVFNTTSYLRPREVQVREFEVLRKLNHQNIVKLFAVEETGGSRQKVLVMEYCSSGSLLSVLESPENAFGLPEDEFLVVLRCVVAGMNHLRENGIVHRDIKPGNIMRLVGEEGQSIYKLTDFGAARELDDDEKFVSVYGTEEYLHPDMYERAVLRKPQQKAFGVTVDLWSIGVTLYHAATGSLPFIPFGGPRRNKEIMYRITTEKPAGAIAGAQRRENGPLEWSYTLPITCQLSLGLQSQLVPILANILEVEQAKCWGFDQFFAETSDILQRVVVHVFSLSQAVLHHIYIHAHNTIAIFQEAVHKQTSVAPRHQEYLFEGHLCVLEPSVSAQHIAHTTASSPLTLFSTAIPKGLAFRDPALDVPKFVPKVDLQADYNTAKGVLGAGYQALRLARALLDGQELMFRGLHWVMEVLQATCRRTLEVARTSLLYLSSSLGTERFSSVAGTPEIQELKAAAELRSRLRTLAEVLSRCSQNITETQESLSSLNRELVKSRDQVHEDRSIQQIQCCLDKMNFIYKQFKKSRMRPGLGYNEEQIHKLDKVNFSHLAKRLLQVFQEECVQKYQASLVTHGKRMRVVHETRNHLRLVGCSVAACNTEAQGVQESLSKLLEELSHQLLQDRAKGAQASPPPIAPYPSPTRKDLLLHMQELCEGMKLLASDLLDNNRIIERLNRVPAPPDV
Kind of assay: IKKepsilon Flashplate Assay: The kinase assay is performed either as 384-well Flashplate assay (for e.g. Topcount measurement). 1 nM IKKepsilon, 800 nM biotinylated IkappaBalpha(19-42) peptide (Biotin-C6-C6-[…]) SEQ ID NO: 1 and 10 uM ATP (spiked with 0.3 uCi 33P-ATP/well) are incubated in a total volume of 50 ul (10 mM MOPS, 10 mM Mg-acetat, 0.1 mM EGTA, 1 mM Dithiothreitol,0.02% Brij35, 0.1% BSA, 0.1% BioStab, pH 7.5) with or without test compound for 2 hours at 30° C. The reaction is stopped with 25 ul 200 mM EDTA. After 30 Min at room temperature the liquid is removed and each well washed thrice with 100 ul 0.9% sodium chloride solution. Non-specific reaction is determined in presence of 3 uM MSC2119074 (BX-795). Radioactivity is measured with Topcount (PerkinElmer).

Consider `Nc1ncc(-c2cccc(C(=O)O)c2)cc1C(=O)Nc1ccncc1`, for which the IC50 (usually the midpoint of a concentration-inhibition curve) in assay [1] came out at 1100 nM; in assay [2] it was 3200 nM.

The record behind these values is ChEMBL document CHEMBL3886561, “Pyridine-and pyrazine derivatives” (2016).
